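Dose response: 5 concentrations. Exposure: 48 h. Format: 96-well plates. Endpoint: linear interpolation; highest concentration if not reached. TGI: total growth inhibition.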
How the values were obtained:
Experiment in all cases: DTP human tumour cell line panel, 48 h
[1] = test system: 786-0 renal
[2] = test system: A498 renal
[3] = test system: A549 NSCLC
[4] = test system: ACHN renal
[5] = test system: BT-549 breast
[6] = test system: CAKI-1 renal
[7] = test system: COLO 205 colon
[8] = test system: DU-145 prostate
[9] = test system: EKVX NSCLC
[10] = test system: HCC-2998 colon
[11] = test system: HCT-116 colon
[12] = test system: HCT-15 colon
[13] = test system: HL-60(TB) leukemia
[14] = test system: HOP-62 NSCLC
[15] = test system: HOP-92 NSCLC
[16] = test system: HS 578T breast
[17] = test system: HT29 colon
[18] = test system: IGROV1 ovarian
[19] = test system: K-562 leukemia
[20] = test system: KM12 colon
[21] = test system: M14 melanoma
[22] = test system: MALME-3M melanoma
[23] = test system: MCF7 breast
[24] = test system: MDA-MB-231 breast
[25] = test system: MDA-MB-435
[26] = test system: MDA-N
[27] = test system: NCI-H23 lung
[28] = test system: NCI-H460 lung
[29] = test system: NCI-H522 lung
[30] = test system: NCI/ADR-RES ovarian
[31] = test system: OVCAR-4 ovarian
[32] = test system: OVCAR-5 ovarian
[33] = test system: OVCAR-8 ovarian
[34] = test system: PC-3 prostate
[35] = test system: RPMI-8226 leukemia
[36] = test system: RXF 393 renal
[37] = test system: SF-268 CNS
[38] = test system: SF-295 CNS
[39] = test system: SF-539 CNS
[40] = test system: SK-MEL-28 melanoma
[41] = test system: SK-MEL-5 melanoma
[42] = test system: SK-OV-3 ovarian
[43] = test system: SN12C renal
[44] = test system: SNB-19 CNS
[45] = test system: SNB-75 CNS
[46] = test system: SR leukemia
[47] = test system: SW-620 colon
[48] = test system: T-47D breast
[49] = test system: TK-10 renal
[50] = test system: U251 CNS
[51] = test system: UACC-257 melanoma
[52] = test system: UACC-62 melanoma
[53] = test system: UO-31 renal
[54] = test system: CCRF-CEM leukemia
[55] = test system: LOX IMVI melanoma
[56] = test system: NCI-H226 lung
[57] = test system: OVCAR-3 ovarian
[58] = test system: SK-MEL-2 melanoma

Molecule COC1/C=C/C(C)C(OC)CC(O)/C=C/C(C)C(C(C)C(OC)C(C)CCC(=O)C(C)C(C/C=C/N(C)C=O)OC)OC(=O)/C=C/C=C(\C)CC(OC)CC2=CC(=O)O[C@@H](C(C)C(OC)C1)[C@H]2O (stereo not given in full) has a TGI [1] of 0.503 µM, a TGI [2] of 0.131 µM and a TGI [3] of 1.1 µM. For the same molecule, the TGI [4] was 1.32 µM, the TGI [5] was 0.498 µM and the TGI [6] was 0.0875 µM. For the same molecule, the TGI [7] was 0.418 µM, the TGI [8] was over 6.79 µM and the TGI [9] was 1.32 µM. It also gave a TGI [10] of 1.35 µM, a TGI [11] of 0.41 µM and a TGI [12] of 0.62 µM. For the same molecule, the TGI [13] was over 25 µM, the TGI [14] was 0.16 µM and the TGI [15] was 0.168 µM. For the same molecule, the TGI [16] was 0.261 µM, the TGI [17] was over 5.01 µM and the TGI [18] was 0.423 µM. For the same molecule, the TGI [19] was over 25 µM, the TGI [20] was over 6.11 µM and the TGI [21] was 0.175 µM. It also gave a TGI [22] of 0.317 µM, a TGI [23] of 0.409 µM and a TGI [24] of 0.106 µM. For the same molecule, the TGI [25] was 1.05 µM, the TGI [26] was 0.178 µM and the TGI [27] was 1.06 µM. For the same molecule, the TGI [28] was 0.477 µM, the TGI [29] was 0.653 µM and the TGI [30] was 1.14 µM. It also gave a TGI [31] of 1.21 µM, a TGI [32] of 1.86 µM and a TGI [33] of 0.776 µM. For the same molecule, the TGI [34] was 1.09 µM, the TGI [35] was 3.7 µM and the TGI [36] was 0.265 µM. The TGI [37] was over 5.72 µM, the TGI [38] was 0.362 µM and the TGI [39] was 0.434 µM. The TGI [40] was 0.385 µM, the TGI [41] was 0.274 µM and the TGI [42] was 0.905 µM. The TGI [43] was over 25 µM, the TGI [44] was 0.239 µM and the TGI [45] was 0.32 µM. The TGI [46] was over 25 µM, the TGI [47] was over 12.4 µM and the TGI [48] was 6.27 µM. The TGI [49] was 0.785 µM, the TGI [50] was 0.199 µM and the TGI [51] was 0.318 µM. The TGI [52] was 0.504 µM and the TGI [53] was 0.3 µM.

Molecule CCn1ncc(Oc2c(Cl)cc(N)cc2Cl)c(Cl)c1=O has a TGI [1] of over 100 µM, a TGI [2] of over 100 µM and a TGI [3] of over 100 µM. The TGI [4] was over 100 µM, the TGI [5] was 91.1 µM and the TGI [6] was over 100 µM. For the same molecule, the TGI [54] was over 100 µM, the TGI [7] was 46.9 µM and the TGI [8] was over 100 µM. It also gave a TGI [9] of over 100 µM, a TGI [10] of over 100 µM and a TGI [11] of 80.8 µM. The TGI [12] was over 100 µM, the TGI [13] was over 100 µM and the TGI [14] was over 100 µM. It also gave a TGI [15] of over 100 µM, a TGI [16] of 67.6 µM and a TGI [17] of 58.5 µM. The TGI [18] was over 100 µM, the TGI [19] was over 100 µM and the TGI [20] was over 100 µM. The TGI [55] was over 100 µM, the TGI [21] was over 100 µM and the TGI [22] was over 100 µM. It also gave a TGI [23] of over 100 µM, a TGI [24] of over 100 µM and a TGI [25] of over 100 µM. The TGI [26] was 79.6 µM, the TGI [56] was over 100 µM and the TGI [27] was over 100 µM. For the same molecule, the TGI [28] was over 100 µM, the TGI [30] was over 100 µM and the TGI [57] was 40.7 µM. It also gave a TGI [31] of over 100 µM, a TGI [32] of over 100 µM and a TGI [33] of over 100 µM. It also gave a TGI [34] of over 100 µM, a TGI [35] of over 100 µM and a TGI [36] of over 100 µM. For the same molecule, the TGI [37] was over 100 µM, the TGI [38] was 63.6 µM and the TGI [39] was over 100 µM. It also gave a TGI [58] of over 100 µM, a TGI [40] of over 100 µM and a TGI [41] of 65 µM. The TGI [42] was 77.9 µM, the TGI [43] was over 100 µM and the TGI [44] was over 100 µM. For the same molecule, the TGI [45] was over 100 µM, the TGI [46] was 80.7 µM and the TGI [47] was over 100 µM. It also gave a TGI [48] of over 100 µM, a TGI [49] of over 100 µM and a TGI [50] of over 100 µM. The TGI [51] was over 100 µM, the TGI [52] was over 100 µM and the TGI [53] was over 100 µM.

Source: PubChem BioAssay (NCI)
